Measurements as given in ChEMBL document CHEMBL3885861, “Open TG-GATES”.

Species: Rattus norvegicus
Test: Open TG-GATES - Regimen: Single
Type: toxicity, organism-based, Sprague-Dawley
Parameters: regimen Single, gender Male, age 6 weeks
Conditions: in vivo, ip, 150 mg/kg, route intraperitoneal injection, dose level Low; for APTT / Bas / Eos / Fbg / Hb / Ht / Lym / MCH / MCHC / MCV / Mono / Neu / PT / Plat / RBC / Ret / WBC: tissue Blood; for KIDNEY_L / KIDNEY_R / KIDNEY_TOTAL: tissue Kidney; for LIVER: tissue Liver; for A/G / ALP / ALT / AST / BUN / CRE / Ca / Cl / DBIL / GLC / IP / K / LDH / Na / PL / RALB / TBIL / TC / TG / TP / gamma-GTP: tissue Plasma

## CCCCS(=N)(=O)CCC(N)C(=O)O (configuration not stated) [BUTHIONINE SULFOXIMINE]
3 h
  TERMINAL_BW: 216.6 g
  APTT: 16.5 s
  Bas: 0%
  Eos: 0.8%
  Fbg: 216.4 mg/dL
  Hb: 13 g/dL
  Ht: 40%
  Lym: 74.8%
  MCH: 21.5 pg
  MCHC: 32.6%
  MCV: 66 fL
  Mono: 6%
  Neu: 18.6%
  PT: 12.1 s
  Plat: 112.9 x10_4/uL
  RBC: 606.2 x10_4/ul
  Ret: 9.2%
  WBC: 102.3 x10_2/uL
  KIDNEY_L: 0.9 g
  KIDNEY_R: 1 g
  KIDNEY_TOTAL: 1.9 g
  LIVER: 10.3 g
  A/G: 2.3
  ALP: 957.2 IU/L
  ALT: 38.8 IU/L
  AST: 70.8 IU/L
  BUN: 13.6 mg/dL
  CRE: 0.5 mg/dL
  Ca: 10.9 mg/dL
  Cl: 104.8 meq/L
  DBIL: 0.08 mg/dL
  GLC: 193 mg/dL
  IP: 9.3 mg/dL
  K: 4.7 meq/L
  LDH: 91.8 IU/L
  Na: 139.8 meq/L
  PL: 133.8 mg/dL
  RALB: 3.8 g/dL
  TBIL: 0.3 mg/dL
  TC: 73.4 mg/dL
  TG: 58.4 mg/dL
  TP: 5.4 g/dL
  gamma-GTP: 1.2 IU/L
6 h
  TERMINAL_BW: 216 g
  APTT: 16.4 s
  Bas: 0%
  Eos: 0.6%
  Fbg: 217.8 mg/dL
  Hb: 13.3 g/dL
  Ht: 39.8%
  Lym: 70%
  MCH: 22.2 pg
  MCHC: 33.6%
  MCV: 66.2 fL
  Mono: 8.6%
  Neu: 20.8%
  PT: 11.2 s
  Plat: 109.8 x10_4/uL
  RBC: 600.6 x10_4/ul
  Ret: 9.3%
  WBC: 102.1 x10_2/uL
  KIDNEY_L: 1 g
  KIDNEY_R: 1 g
  KIDNEY_TOTAL: 2 g
  LIVER: 9.7 g
  A/G: 1.8
  ALP: 849.4 IU/L
  ALT: 32.8 IU/L
  AST: 72 IU/L
  BUN: 13 mg/dL
  CRE: 0.6 mg/dL
  Ca: 10.8 mg/dL
  Cl: 105.6 meq/L
  DBIL: 0 mg/dL
  GLC: 191 mg/dL
  IP: 9.5 mg/dL
  K: 4.6 meq/L
  LDH: 73.2 IU/L
  Na: 140.2 meq/L
  PL: 131.4 mg/dL
  RALB: 3.4 g/dL
  TBIL: 0.4 mg/dL
  TC: 71.8 mg/dL
  TG: 63.4 mg/dL
  TP: 5.2 g/dL
  gamma-GTP: 1.4 IU/L
9 h
  TERMINAL_BW: 212.7 g
  APTT: 16.6 s
  Bas: 0%
  Eos: 1.2%
  Fbg: 232.6 mg/dL
  Hb: 13 g/dL
  Ht: 38.7%
  Lym: 59.6%
  MCH: 22.1 pg
  MCHC: 33.7%
  MCV: 65.6 fL
  Mono: 4.2%
  Neu: 35.2%
  PT: 11.2 s
  Plat: 112.1 x10_4/uL
  RBC: 589.8 x10_4/ul
  Ret: 10.3%
  WBC: 124.2 x10_2/uL
  KIDNEY_L: 1 g
  KIDNEY_R: 1 g
  KIDNEY_TOTAL: 2 g
  LIVER: 8.7 g
  A/G: 1.9
  ALP: 803.6 IU/L
  ALT: 33.6 IU/L
  AST: 69 IU/L
  BUN: 10.4 mg/dL
  CRE: 0.5 mg/dL
  Ca: 10.9 mg/dL
  Cl: 105.8 meq/L
  DBIL: 0.024 mg/dL
  GLC: 196.8 mg/dL
  IP: 9.7 mg/dL
  K: 4.9 meq/L
  LDH: 94 IU/L
  Na: 139 meq/L
  PL: 143.4 mg/dL
  RALB: 3.5 g/dL
  TBIL: 0.4 mg/dL
  TC: 89.6 mg/dL
  TG: 33.8 mg/dL
  TP: 5.4 g/dL
  gamma-GTP: 1.8 IU/L
24 h
  TERMINAL_BW: 227.8 g
  APTT: 16.9 s
  Bas: 0%
  Eos: 1.4%
  Fbg: 242.2 mg/dL
  Hb: 13.1 g/dL
  Ht: 39.2%
  Lym: 77.8%
  MCH: 21.8 pg
  MCHC: 33.5%
  MCV: 65.1 fL
  Mono: 6%
  Neu: 14.6%
  PT: 11.5 s
  Plat: 125.6 x10_4/uL
  RBC: 602.2 x10_4/ul
  Ret: 9.2%
  WBC: 76.2 x10_2/uL
  KIDNEY_L: 1 g
  KIDNEY_R: 1 g
  KIDNEY_TOTAL: 1.9 g
  LIVER: 11.2 g
  A/G: 1.8
  ALP: 977.2 IU/L
  ALT: 31.4 IU/L
  AST: 61.4 IU/L
  BUN: 19.4 mg/dL
  CRE: 0.5 mg/dL
  Ca: 11.3 mg/dL
  Cl: 104 meq/L
  DBIL: 0.01 mg/dL
  GLC: 209 mg/dL
  IP: 8.4 mg/dL
  K: 4.5 meq/L
  LDH: 86 IU/L
  Na: 139.8 meq/L
  PL: 156.6 mg/dL
  RALB: 3.7 g/dL
  TBIL: 0.3 mg/dL
  TC: 88.2 mg/dL
  TG: 101 mg/dL
  TP: 5.9 g/dL
  gamma-GTP: 1 IU/L
